In patent US9120812B2, “Pyrimidooxazocine derivatives as mTOR-inhibitors” (SANOFI, priority 2012, dated 2015):
Read-outs that look alike come from different tables or passages of the source.

Tests used:
[1] = target: mTOR (human recombinant aa mTOR 1360-2549) (Homo sapiens (Human), UniProt P42345); test: mTOR enzymatic test by TR-FRET (phosphorylation of GFP-4EBP1); type: biochemical
Summary of the method: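 After a 30 min room-temperature kinase reaction, EDTA (10 mM final) and Tb-labelled phospho-Thr46 antibody (2 nM final) were added and incubated 60 min. Energy transfer from Tb to phosphorylated GFP-4EBP1 was read at 340 nm excitation, emissions 490/520 nm. Values derive from the 520/490 fluorescence ratio.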

U87MG tumour cells = test: Test of in vitro proliferation of U87MG tumour cells; type: cell-based; details: U87MG cells, 72 hours, read-out: U87 Cell Proliferation IC50
Description: Model 4: Test of in vitro Proliferation of U87MG Tumour Cells.
The cell growth is determined with the reagent CellTiter 96 AQueous One Solution Cell Proliferation Assay from Promega (Cat. No. G3581).

PI3Kα (p110α/p85α) = PI3Kα (p110α/p85α) (Homo sapiens (Human), UniProt P42336); test: PI3Kα enzymatic test by measuring the consumption of ATP; type: biochemical
Summary of the method: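 ATP consumption read out by KinaseGlo luminescence after a 90 min reaction of 1.7 μg/ml PI3Kα (p110α/p85α) with 2 μM ATP and 50 μM PIP2, buffered at pH 7.5 (Tris, 10 mM MgCl2, 1 mM EGTA, 0.03% Chaps, 1 mM DTT). Threefold dilution series over ≥10 000-fold range yield IC50.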

[2] = Homo sapiens, U-87 MG, read-out: U87 Akt-pS473 % Inhibition or IC50, nM (IC50), U87MG cells

Sequence of PI3Kα (p110α/p85α) (P42336 whole entry): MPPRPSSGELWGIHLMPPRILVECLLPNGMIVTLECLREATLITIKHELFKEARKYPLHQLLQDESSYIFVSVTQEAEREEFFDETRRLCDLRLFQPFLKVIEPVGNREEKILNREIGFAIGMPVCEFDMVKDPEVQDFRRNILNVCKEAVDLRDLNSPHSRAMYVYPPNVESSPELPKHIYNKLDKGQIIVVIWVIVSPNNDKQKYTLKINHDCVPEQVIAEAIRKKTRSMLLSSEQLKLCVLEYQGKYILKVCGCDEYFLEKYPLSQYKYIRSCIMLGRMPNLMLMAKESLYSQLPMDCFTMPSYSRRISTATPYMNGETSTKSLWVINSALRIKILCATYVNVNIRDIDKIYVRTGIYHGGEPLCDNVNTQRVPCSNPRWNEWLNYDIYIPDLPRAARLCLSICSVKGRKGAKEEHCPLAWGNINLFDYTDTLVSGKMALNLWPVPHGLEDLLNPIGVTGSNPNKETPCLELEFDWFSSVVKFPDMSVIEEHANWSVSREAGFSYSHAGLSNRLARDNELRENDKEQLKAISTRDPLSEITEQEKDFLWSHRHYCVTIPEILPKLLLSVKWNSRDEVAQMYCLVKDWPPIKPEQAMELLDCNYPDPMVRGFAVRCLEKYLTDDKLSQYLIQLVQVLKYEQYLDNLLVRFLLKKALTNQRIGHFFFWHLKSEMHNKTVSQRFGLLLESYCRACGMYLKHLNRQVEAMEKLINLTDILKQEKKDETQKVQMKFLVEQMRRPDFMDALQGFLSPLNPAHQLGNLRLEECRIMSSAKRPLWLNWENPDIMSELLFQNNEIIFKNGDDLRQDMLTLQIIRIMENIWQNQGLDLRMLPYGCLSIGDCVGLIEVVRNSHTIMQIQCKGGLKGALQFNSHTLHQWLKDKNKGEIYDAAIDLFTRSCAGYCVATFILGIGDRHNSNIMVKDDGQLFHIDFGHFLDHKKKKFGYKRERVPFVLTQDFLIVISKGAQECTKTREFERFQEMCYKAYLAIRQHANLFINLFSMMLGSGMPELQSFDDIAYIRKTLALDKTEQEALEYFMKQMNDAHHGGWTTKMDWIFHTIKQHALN
Sequence of PI3Kα (p110α/p85α) (P27986 whole entry partner): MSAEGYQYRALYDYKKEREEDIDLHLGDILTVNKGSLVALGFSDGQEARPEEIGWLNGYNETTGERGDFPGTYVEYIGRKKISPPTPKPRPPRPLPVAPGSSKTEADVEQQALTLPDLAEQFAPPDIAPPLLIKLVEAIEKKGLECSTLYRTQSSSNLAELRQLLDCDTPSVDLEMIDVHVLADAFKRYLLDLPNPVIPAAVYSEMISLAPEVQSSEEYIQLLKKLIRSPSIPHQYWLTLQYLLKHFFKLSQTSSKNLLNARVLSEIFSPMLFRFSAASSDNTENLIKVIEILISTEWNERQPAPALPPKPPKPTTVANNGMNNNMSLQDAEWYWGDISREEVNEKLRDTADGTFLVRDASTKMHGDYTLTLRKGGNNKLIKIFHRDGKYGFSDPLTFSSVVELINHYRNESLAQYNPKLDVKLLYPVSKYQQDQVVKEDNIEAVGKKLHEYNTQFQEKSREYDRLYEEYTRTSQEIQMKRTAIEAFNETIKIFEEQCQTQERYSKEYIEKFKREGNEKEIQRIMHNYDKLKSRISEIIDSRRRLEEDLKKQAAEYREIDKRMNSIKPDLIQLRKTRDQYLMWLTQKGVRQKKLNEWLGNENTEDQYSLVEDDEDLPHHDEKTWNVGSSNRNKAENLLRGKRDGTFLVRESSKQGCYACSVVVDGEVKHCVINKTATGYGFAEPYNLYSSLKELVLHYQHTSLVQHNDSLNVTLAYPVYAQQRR
Sequence of mTOR (human recombinant aa mTOR 1360-2549) (P42345 1360-2549): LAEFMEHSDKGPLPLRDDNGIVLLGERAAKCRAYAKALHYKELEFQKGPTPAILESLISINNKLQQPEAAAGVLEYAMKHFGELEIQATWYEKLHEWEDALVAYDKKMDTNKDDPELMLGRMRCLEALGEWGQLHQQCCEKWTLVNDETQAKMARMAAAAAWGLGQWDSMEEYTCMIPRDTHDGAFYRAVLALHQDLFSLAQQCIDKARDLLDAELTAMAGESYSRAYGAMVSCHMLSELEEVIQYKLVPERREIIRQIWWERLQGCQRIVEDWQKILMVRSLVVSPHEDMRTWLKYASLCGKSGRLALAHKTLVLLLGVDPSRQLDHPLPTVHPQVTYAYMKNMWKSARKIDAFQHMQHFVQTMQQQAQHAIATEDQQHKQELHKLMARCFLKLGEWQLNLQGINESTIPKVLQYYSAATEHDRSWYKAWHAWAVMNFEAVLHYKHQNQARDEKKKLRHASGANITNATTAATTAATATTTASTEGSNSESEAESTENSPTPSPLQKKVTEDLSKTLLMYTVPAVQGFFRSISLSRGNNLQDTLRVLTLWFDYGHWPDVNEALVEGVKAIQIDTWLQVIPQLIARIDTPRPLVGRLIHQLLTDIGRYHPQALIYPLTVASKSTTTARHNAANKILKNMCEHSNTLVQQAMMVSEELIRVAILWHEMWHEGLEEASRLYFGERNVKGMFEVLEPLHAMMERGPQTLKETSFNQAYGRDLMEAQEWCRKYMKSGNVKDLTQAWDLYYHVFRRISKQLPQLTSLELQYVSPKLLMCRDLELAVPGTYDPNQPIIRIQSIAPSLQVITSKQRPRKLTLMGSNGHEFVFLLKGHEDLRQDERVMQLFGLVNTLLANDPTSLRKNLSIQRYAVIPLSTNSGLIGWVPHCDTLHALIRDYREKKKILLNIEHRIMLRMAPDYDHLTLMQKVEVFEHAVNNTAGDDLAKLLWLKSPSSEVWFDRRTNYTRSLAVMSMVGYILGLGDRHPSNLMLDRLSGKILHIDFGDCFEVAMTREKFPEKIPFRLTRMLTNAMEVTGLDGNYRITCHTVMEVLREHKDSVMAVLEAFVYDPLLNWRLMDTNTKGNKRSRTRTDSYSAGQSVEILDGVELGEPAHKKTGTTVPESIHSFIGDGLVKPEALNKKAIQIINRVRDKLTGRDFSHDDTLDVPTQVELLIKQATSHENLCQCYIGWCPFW

SMILES | IC50 [1] [nM] | IC50 (U87MG tumour cells; Homo sapiens, U-87 MG, 72 h) [nM] | PI3Ka IC50 (PI3Kα (p110α/p85α)) [nM] | IC50 (Akt-pS473 in U87MG cells; [2]) [nM] | IC50 (U87MG tumour cells) [nM] | IC50 (Akt-pS473 in U87MG cells; read-out: U87 Akt-pS473 % Inhibition or IC50, nM (IC50), U87MG cells) [nM]
CCN1CC(C)(C)Oc2nc(N3CC4CCC(C3)O4)nc(-c3ccc(NC(=O)Nc4cnn(C)c4)c(F)c3)c2C1=O [Example 143, 1-{4-[6-Ethyl-8,8-dimethyl-2-(8-oxa-3-azabicyclo[3.2.1]oct-3-yl)-5-oxo-5,6,7,8-tetrahydro-9-oxa-1,3,6-triazabenzocyclohepten-4-yl]-2-fluorophenyl}-3-(1-methyl-1H-pyrazol-4-yl)urea] | 19 | 295 | 3180 | 62 |  | 
CCN1CC(C)(C)Oc2nc(N3C4CCC3COC4)nc(-c3ccc(NC(=O)Nc4ccncn4)cc3)c2C1=O [Example 92, 1-{4-[6-Ethyl-8,8-dimethyl-2-(3-oxa-8-azabicyclo[3.2.1]oct-8-yl)-5-oxo-5,6,7,8-tetrahydro-9-oxa-1,3,6-triazabenzocyclohepten-4-yl]phenyl}-3-pyrimidin-4-ylurea] | 40 | 99 | >10000 | 12 |  | 
CCN1CC(C)(C)Oc2nc(N3CCOC[C@@H]3C)nc(-c3ccc(NC(=O)Nc4ccc(N5CCOCC5(C)C)nc4)c(F)c3)c2C1=O [Example 256, 1-[6-(3,3-Dimethylmorpholin-4-yl)pyridin-3-yl]-3-{4-[6-ethyl-8,8-dimethyl-2-((S)-3-methylmorpholin-4-yl)-5-oxo-5,6,7,8-tetrahydro-9-oxa-1,3,6-triazabenzocyclohepten-4-yl]-2-fluorophenyl}urea] | 196 | 83 | 199 | 42 |  | 
CCN1CC(C)(C)Oc2nc(N3CCOC[C@@H]3C)nc(-c3ccc(NC(=O)Nc4ccon4)c(C)c3)c2C1=O [Example 26, 1-{4-[6-ethyl-8,8-dimethyl-2-((S)-3-methylmorpholin-4-yl)-5-oxo-5,6,7,8-tetrahydro-9-oxa-1,3,6-triazabenzocyclohepten-4-yl]-2-methylphenyl}-3-isoxazol-3-ylurea] | 112 | 3570 | 3860 | > 1000 |  | 
CCN1CC(C)(C)Oc2nc(N3CCOC[C@@H]3C)nc(-c3ccc(NC(=O)Nc4ccon4)c(F)c3)c2C1=O [Example 159, 1-{4-[6-Ethyl-8,8-dimethyl-2-((S)-3-methylmorpholin-4-yl)-5-oxo-5,6,7,8-tetrahydro-9-oxa-1,3,6-triazabenzocyclohepten-4-yl]-2-fluorophenyl}-3-isoxazol-3-ylurea] | 18 | 98 | 561 | 21 |  | 
CCN1CC(C)(C)Oc2nc(N3CC4CCC(C3)O4)nc(-c3ccc(NC(=O)Nc4cc(OC)ccn4)cc3)c2C1=O [Example 35, 1-{4-[6-Ethyl-8,8-dimethyl-2-(8-oxa-3-azabicyclo[3.2.1]oct-3-yl)-5-oxo-5,6,7,8-tetrahydro-9-oxa-1,3,6-triazabenzocyclohepten-4-yl]phenyl}-3-(4-methoxypyridin-2-yl)urea] | 37 | 336 | >10000 | 75 |  | 
CN1CC(C)(C)Oc2nc(N3CC4CCC(C3)O4)nc(-c3ccc(NC(=O)Nc4ccccn4)cc3)c2C1=O [Example 39, 1-Pyridin-2-yl-3-{4-[6,8,8-trimethyl-2-(8-oxa-3-azabicyclo[3.2.1]oct-3-yl)-5-oxo-5,6,7,8-tetrahydro-9-oxa-1,3,6-triazabenzocyclohepten-4-yl]phenyl}urea] | 26 | 207 | 5870 | 34 |  | 
CCN1CC(C)(C)Oc2nc(N3C4CCC3COC4)nc(-c3ccc(NC(=O)Nc4ccc(N5C[C@@H]6C[C@H]5CO6)nc4)c(F)c3)c2C1=O [Example 253, 1-{4-[6-Ethyl-8,8-dimethyl-2-(3-oxa-8-azabicyclo[3.2.1]oct-8-yl)-5-oxo-5,6,7,8-tetrahydro-9-oxa-1,3,6-triazabenzocyclohepten-4-yl]-2-fluorophenyl}-3-[(1S,4S)-6-(2-oxa-5-azabicyclo[2.2.1]hept-5-yl)pyridin-3-yl]urea] | 72 | 167 | >10000 | 68 |  | 
CCN1CC(C)(C)Oc2nc(N3CC4CCC(C3)O4)nc(-c3ccc(NC(=O)Nc4ccc(N5CCS(=O)(=O)CC5)cc4)c(F)c3)c2C1=O [Example 237, 1-[4-(1,1-Dioxo-1λ6-thiomorpholin-4-yl)phenyl]-3-{4-[6-ethyl-8,8-dimethyl-2-(8-oxa-3-azabicyclo[3.2.1]oct-3-yl)-5-oxo-5,6,7,8-tetrahydro-9-oxa-1,3,6-triazabenzocyclohepten-4-yl]-2-fluorophenyl}urea] | 39 | 49 | >7200 | 80 |  | 
CCN1CC(C)(C)Oc2nc(N3CCOC[C@@H]3C)nc(-c3ccc(NC(=O)Nc4ccc(C)cn4)cc3)c2C1=O [Example 169, 1-{4-[6-Ethyl-8,8-dimethyl-2-((S)-3-methylmorpholin-4-yl)-5-oxo-5,6,7,8-tetrahydro-9-oxa-1,3,6-triazabenzocyclohepten-4-yl]phenyl}-3-(5-methylpyridin-2-yl)urea] | 31 |  | 1450 |  | 299 | 26
CCN1CC(C)(C)Oc2nc(N3CC4CCC(C3)O4)nc(-c3ccc(NC(=O)Nc4ccc(OCCOC)cn4)cc3)c2C1=O [Example 40, 1-{4-[6-Ethyl-8,8-dimethyl-2-(8-oxa-3-azabicyclo[3.2.1]oct-3-yl)-5-oxo-5,6,7,8-tetrahydro-9-oxa-1,3,6-triazabenzocyclohepten-4-yl]phenyl}-3-[5-(2-methoxyethoxy)pyridin-2-yl]urea] | 56 | 274 | >10000 | 59 |  | 
CCN1CC(C)(C)Oc2nc(N3CC4CCC(C3)O4)nc(-c3ccc(NC(=O)Nc4ccc(OC)nn4)cc3)c2C1=O [Example 146, 1-{4-[6-Ethyl-8,8-dimethyl-2-(8-oxa-3-azabicyclo[3.2.1]oct-3-yl)-5-oxo-5,6,7,8-tetrahydro-9-oxa-1,3,6-triazabenzocyclohepten-4-yl]phenyl}-3-(6-methoxypyridazin-3-yl)urea] | 35 | 441 | >10000 | 82 |  | 
CCN1CC(C)(C)Oc2nc(N3C4CCC3COC4)nc(-c3ccc(NC(=O)NC4CC4)c(F)c3)c2C1=O [Example 254, 1-Cyclopropyl-3-{4-[6-ethyl-8,8-dimethyl-2-(3-oxa-8-azabicyclo[3.2.1]oct-8-yl)-5-oxo-5,6,7,8-tetrahydro-9-oxa-1,3,6-triazabenzocyclohepten-4-yl]-2-fluorophenyl}urea] | 68 | 240 | >10000 | 68 |  | 
CCN1CC(C)(C)Oc2nc(N3CCOC[C@@H]3C)nc(-c3ccc(NC(=O)Nc4ccc(OC)cn4)cc3)c2C1=O [Example 173, 1-{4-[6-Ethyl-8,8-dimethyl-2-((S)-3-methylmorpholin-4-yl)-5-oxo-5,6,7,8-tetrahydro-9-oxa-1,3,6-triazabenzocyclohepten-4-yl]phenyl}-3-(5-methoxypyridin-2-yl)urea] | 12 | 242 | 1602 | 42 |  | 
CCN1CC(C)(C)Oc2nc(N3CC4CCC(C3)O4)nc(-c3ccc(NC(=O)Nc4ccc(N5CCN(C)CC5)nc4)c(F)c3)c2C1=O [Example 195, 1-{4-[6-Ethyl-8,8-dimethyl-2-(8-oxa-3-azabicyclo[3.2.1]oct-3-yl)-5-oxo-5,6,7,8-tetrahydro-9-oxa-1,3,6-triazabenzocyclohepten-4-yl]-2-fluorophenyl}-3-[6-(4-methylpiperazin-1-yl)pyridin-3-yl]urea] | 61 | 57 | 6800 | 45 |  | 
CCN1CC(C)(C)Oc2nc(N3CC4CCC(C3)O4)nc(-c3ccc(NC(=O)Nc4ccc(N5CCN(C)CC5)cc4)cc3)c2C1=O [Example 205, 1-{4-[6-Ethyl-8,8-dimethyl-2-(8-oxa-3-azabicyclo[3.2.1]oct-3-yl)-5-oxo-5,6,7,8-tetrahydro-9-oxa-1,3,6-triazabenzocyclohepten-4-yl]phenyl}-3-[4-(4-methylpiperazin-1-yl)phenyl]urea] | 63 | 22 | 3740 | 13 |  | 
CCN1CC(C)(C)Oc2nc(N3CCOC[C@@H]3C)nc(-c3ccc(NC(=O)Nc4ccc(N5C[C@@H]6C[C@H]5CO6)nc4)c(F)c3)c2C1=O [Example 252, 1-{4-[6-Ethyl-8,8-dimethyl-2-((S)-3-methylmorpholin-4-yl)-5-oxo-5,6,7,8-tetrahydro-9-oxa-1,3,6-triazabenzocyclohepten-4-yl]-2-fluorophenyl}-3-[(1S,4S)-6-(2-oxa-5-azabicyclo[2.2.1]hept-5-yl)pyridin-3-yl]urea] | 68 | 282 | 1360 | 48 |  | 
